Patent publication US10583117B2, “Oxo-M and 4-PPBP induction of tenogenic differentiation of perivascular tendon stem cells” (The Trustees of Columbia University in the City of New York, priority 2016, dated 2020)
Entries after “also recorded” stand apart in the source; their conditions may differ.

Columns and labels:
FAK [1] = experiment: Western blot, P-FAK in CD146- tendon cells; assay type: cell-based, rat; conditions: CD146− tendon cells (excluding PTSCs)
Experimental: (§1) Activation of FAK and ERK1/2 signaling by Oxo-M and 4-PPBP was further confirmed by western blot and siRNA knockdown (KD). […] With combined Oxo-M and 4-PPBP, both P-FAK and P-ERK1/2 were detected (FIG. 3A). […] In addition, siRNA KD of FAK and ERK1/2 were performed as described previously (Lee, et al., 2015, supra), which is hereby incorporated herein by reference in its entirety for all purposes.

[2] = tested on: fully transected rat patellar tendons; experiment: Healing of fully transected rat patellar tendon, delivery via fibrin glue; assay type: in vivo; conditions: for tendon healing, H&E staining: Oxo-M 1 mM, 4-PPBP 10 μM in fibrin; for alignment of collagen fibers (Picrosirius Red, automated digital image processing): n=6; for effect on induced tenogenic differentiation of PTSCs and tendon healing: overall statement
FAK [3] = experiment: Western blot, phosphorylation of FAK in PTSCs; assay type: cell-based, rat; conditions: 12 hours treatment in PTSCs
Experimental: as §1

[4] = tested on: CD146+ perivascular tendon stem/progenitor cells (PTSCs); assay type: cell-based, rat
ERK1/2 = experiment: Western blot, phosphorylation of ERK1/2 in PTSCs; assay type: cell-based, rat; conditions: 12 hours treatment in PTSCs
Experimental: as §1

| SMILES | P-FAK band (FAK [1]) | collagen fibers, polarized Picrosirius Red images ([2]; 1 week post-op) | tendon healing, H&E staining ([2]; 1 week post-op) | collagen fibers, polarized Picrosirius Red images ([2]; 2 weeks post-op) | collagen in healing zone, Masson's Trichrome staining ([2]; 2 weeks post-op) | tendon healing, H&E staining ([2]; 2 weeks post-op) | alignment of collagen fibers (Picrosirius Red, automated digital image processing) [2] | effect on induced tenogenic differentiation of PTSCs and tendon healing [2] | phosphorylation of FAK (P-FAK) (FAK [3]) | COL-I gene expression ([4]; maleate) | COL-III gene expression ([4]; maleate) | phosphorylation of ERK1/2 (P-ERK1/2) (ERK1/2) | Scx gene expression [4] | Tn-C gene expression [4] | VIM gene expression [4] |
| --- | --- | --- | --- | --- | --- | --- | --- | --- | --- | --- | --- | --- | --- | --- | --- |
| O=C(O)/C=C\C(=O)O.c1ccc(CCCCN2CCC(c3ccccc3)CC2)cc1 [4-PPBP, 4-phenyl-1-(4-phenylbutyl)-piperidine maleate] | no P-FAK band | disrupted collagen structure | disorganized scar-like tissue | disrupted collagen structure | disrupted collagen structure | scar-like healing | disoriented fibers | only minimal effect | resulted in phosphorylation | elevated; also recorded: significantly increased | elevated; also recorded: significantly increased |  |  |  |  |
| C[N+](C)(C)CC#CCN1CCCC1=O [Oxo-M, Oxotremorine methiodide] | no P-FAK band | disrupted collagen structure | disorganized scar-like tissue | disrupted collagen structure | disrupted collagen structure | scar-like healing | disoriented fibers | only minimal effect | resulted in phosphorylation |  |  | resulted in phosphorylation | significant increases; also recorded: significantly increased | significant increases; also recorded: significantly increased | significant increases; also recorded: significantly increased |
